Measured values reported in ChEMBL document CHEMBL1641370, “Novel 6,7,8,9-tetrahydro-5H-1,4,7,10a-tetraaza-cyclohepta[f]indene analogues as potent and selective 5-HT(2C) agonists for the treatment of metabolic disorders” (Bioorg Med Chem Lett, 2011).

Assays:
[1] = target: T1, 5-hydroxytryptamine receptor 2C (Homo sapiens, UniProt P28335); assay: Agonist activity at human recombinant 5HT2C receptor expressed in CHOK1 cells assessed as induction of intracellular calcium release by FLIPR assay; assay type: functional, cell-based, CHO-K1
T1 sequence (P28335 whole entry): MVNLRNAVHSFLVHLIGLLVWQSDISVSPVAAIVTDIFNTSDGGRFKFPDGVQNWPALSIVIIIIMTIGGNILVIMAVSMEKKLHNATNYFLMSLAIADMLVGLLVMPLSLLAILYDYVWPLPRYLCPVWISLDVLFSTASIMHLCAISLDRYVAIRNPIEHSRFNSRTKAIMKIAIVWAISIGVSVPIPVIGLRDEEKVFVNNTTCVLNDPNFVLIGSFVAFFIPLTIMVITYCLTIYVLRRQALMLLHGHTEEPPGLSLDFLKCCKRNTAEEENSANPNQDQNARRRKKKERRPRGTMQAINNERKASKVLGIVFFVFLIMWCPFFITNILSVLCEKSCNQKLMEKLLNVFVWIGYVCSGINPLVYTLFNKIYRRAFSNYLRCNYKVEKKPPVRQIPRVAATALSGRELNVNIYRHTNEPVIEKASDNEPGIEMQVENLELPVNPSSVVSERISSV

[2] = target: T2, 5-hydroxytryptamine receptor 2B (Homo sapiens, UniProt P41595); assay: Agonist activity at human recombinant 5HT2B receptor expressed in CHOK1 cells assessed as induction of intracellular calcium release by FLIPR assay; assay type: functional, cell-based, CHO-K1
[3] = target: T3, 5-hydroxytryptamine receptor 2C (Homo sapiens) (UniProt P28335); assay: Agonist activity at human recombinant 5HT2C receptor expressed in CHOK1 cells assessed as induction of intracellular calcium release by FLIPR assay relative to 5-HT; assay type: functional, cell-based; conditions: CHO-K1
T3 sequence (whole entry): T1 sequence (P28335 whole entry)

[4] = target: T2, 5-hydroxytryptamine receptor 2B; assay: Agonist activity at human recombinant 5HT2B receptor expressed in CHOK1 cells assessed as induction of intracellular calcium release by FLIPR assay relative to 5-HT; assay type: functional, cell-based; conditions: CHO-K1
[5] = target: T4, 5-hydroxytryptamine receptor 2A (Homo sapiens, UniProt P28223); assay: Agonist activity at human recombinant 5HT2A receptor expressed in CHOK1 cells assessed as induction of intracellular calcium release by FLIPR assay; assay type: functional, cell-based, CHO-K1
[6] = target: T4, 5-hydroxytryptamine receptor 2A; assay: Agonist activity at human recombinant 5HT2A receptor expressed in CHOK1 cells assessed as induction of intracellular calcium release by FLIPR assay relative to 5-HT; assay type: functional, cell-based; conditions: CHO-K1
hERG (KCNH2) = hERG (KCNH2) (Homo sapiens, UniProt Q12809); assay: Inhibition of human ERG expressed in CHO cells at 10 uM by whole cell patch-clamp technique; assay type: cell-based; conditions: CHO cells expressing human ERG
Caco-2 = assay: Efflux ratio of permeability from […] of human Caco2 cells; assay type: ADME, cell-based
[7] = Permeability from apical to basolateral side of human Caco2 cells; assay type: ADME, cell-based; conditions: caco-2, read-out: permeability
Rattus norvegicus [8] = assay: Dose normalized AUC in Wistar rat at 30 mg/kg, po; assay type: ADME, organism-based; set-up: dose 30 mg/kg, route oral; conditions: in vivo
[9] = Mean residence time in Wistar rat at 30 mg/kg, po; assay type: ADME, organism-based; set-up: dose 30 mg/kg, route oral; conditions: in vivo
[10] = Clearance in Wistar rat at 10 mg/kg, iv and 30 mg/kg, po; assay type: ADME, organism-based; conditions: in vivo
[11] = Volume of distribution at steady state in Wistar rat at 10 mg/kg, iv and 30 mg/kg, po; assay type: ADME, organism-based; conditions: in vivo, read-out: Vdss
Rattus norvegicus [12] = assay: Antiobesity activity in Wistar rat cafteria diet model assessed as weight loss at 100 mg/kg, po after 3 day relative to control; assay type: functional
[13] = Mean residence time in Wistar rat at 10 mg/kg, iv; assay type: ADME, organism-based; set-up: dose 10 mg/kg, route intravenous; conditions: in vivo
Rattus norvegicus [14] = assay: Antiobesity activity in Wistar rat cafteria diet model assessed as weight loss at 30 mg/kg, po after 3 day relative to control; assay type: functional
[15] = Ratio of drug level in CSF to fraction unbound in plasma of Wistar rat at 30 mg/kg, po at 2 hrs; assay type: ADME, organism-based; set-up: dose 30 mg/kg, route oral; conditions: in vivo
[16] = target: Serotonin 2 receptors; 5-HT2a & 5-HT2c (Homo sapiens) (UniProt P28223+P28335); assay: Selectivity ratio of EC50 for human recombinant 5HT2A receptor to EC50 for human recombinant 5HT2C receptor
Homo sapiens = organism: Homo sapiens; assay: Selectivity ratio of EC50 for human recombinant 5HT2B receptor to EC50 for human recombinant 5HT2C receptor

T4 sequence (P28223 whole entry): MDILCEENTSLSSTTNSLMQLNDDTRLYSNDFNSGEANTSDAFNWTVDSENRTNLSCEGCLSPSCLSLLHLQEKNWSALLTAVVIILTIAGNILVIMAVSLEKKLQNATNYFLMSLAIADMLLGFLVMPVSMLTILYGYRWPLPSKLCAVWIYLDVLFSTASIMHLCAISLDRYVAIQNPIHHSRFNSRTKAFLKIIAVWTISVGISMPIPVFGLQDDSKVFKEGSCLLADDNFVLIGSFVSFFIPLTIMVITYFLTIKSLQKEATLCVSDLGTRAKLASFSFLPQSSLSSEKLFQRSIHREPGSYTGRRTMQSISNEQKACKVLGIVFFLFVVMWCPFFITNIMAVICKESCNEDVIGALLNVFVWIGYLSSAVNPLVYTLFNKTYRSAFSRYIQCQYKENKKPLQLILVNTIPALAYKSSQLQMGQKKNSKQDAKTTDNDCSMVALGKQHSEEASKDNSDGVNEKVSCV
hERG (KCNH2), sequence (Q12809 whole entry): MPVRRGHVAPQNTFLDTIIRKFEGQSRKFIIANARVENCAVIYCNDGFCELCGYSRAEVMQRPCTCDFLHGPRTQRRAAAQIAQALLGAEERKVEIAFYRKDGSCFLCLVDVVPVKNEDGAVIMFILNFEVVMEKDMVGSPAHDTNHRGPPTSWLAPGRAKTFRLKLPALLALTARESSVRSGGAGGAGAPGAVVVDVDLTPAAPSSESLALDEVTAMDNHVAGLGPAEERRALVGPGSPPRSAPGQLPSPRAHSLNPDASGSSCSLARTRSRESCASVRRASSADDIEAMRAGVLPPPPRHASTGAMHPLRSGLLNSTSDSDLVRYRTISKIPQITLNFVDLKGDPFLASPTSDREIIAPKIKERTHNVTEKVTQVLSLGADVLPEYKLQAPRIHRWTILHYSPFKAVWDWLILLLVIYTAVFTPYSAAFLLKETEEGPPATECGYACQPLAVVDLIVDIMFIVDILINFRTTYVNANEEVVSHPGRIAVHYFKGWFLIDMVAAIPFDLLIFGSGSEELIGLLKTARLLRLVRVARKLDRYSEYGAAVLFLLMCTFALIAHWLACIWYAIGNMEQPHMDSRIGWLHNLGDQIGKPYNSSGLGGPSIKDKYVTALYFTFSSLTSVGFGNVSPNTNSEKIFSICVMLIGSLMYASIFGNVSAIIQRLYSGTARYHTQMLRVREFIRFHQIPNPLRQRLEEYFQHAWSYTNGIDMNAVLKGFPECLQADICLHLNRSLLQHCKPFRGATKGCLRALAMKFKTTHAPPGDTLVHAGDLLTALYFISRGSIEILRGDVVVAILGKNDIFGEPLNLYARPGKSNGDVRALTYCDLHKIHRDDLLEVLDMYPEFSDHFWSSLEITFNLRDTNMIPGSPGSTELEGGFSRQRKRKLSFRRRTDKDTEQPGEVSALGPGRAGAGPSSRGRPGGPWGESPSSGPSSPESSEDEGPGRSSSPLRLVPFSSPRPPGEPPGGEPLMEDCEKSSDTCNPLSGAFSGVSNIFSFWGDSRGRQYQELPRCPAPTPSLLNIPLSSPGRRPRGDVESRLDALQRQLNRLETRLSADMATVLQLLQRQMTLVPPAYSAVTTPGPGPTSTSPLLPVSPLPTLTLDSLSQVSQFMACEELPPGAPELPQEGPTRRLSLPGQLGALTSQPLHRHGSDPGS
T2 sequence (P41595 whole entry): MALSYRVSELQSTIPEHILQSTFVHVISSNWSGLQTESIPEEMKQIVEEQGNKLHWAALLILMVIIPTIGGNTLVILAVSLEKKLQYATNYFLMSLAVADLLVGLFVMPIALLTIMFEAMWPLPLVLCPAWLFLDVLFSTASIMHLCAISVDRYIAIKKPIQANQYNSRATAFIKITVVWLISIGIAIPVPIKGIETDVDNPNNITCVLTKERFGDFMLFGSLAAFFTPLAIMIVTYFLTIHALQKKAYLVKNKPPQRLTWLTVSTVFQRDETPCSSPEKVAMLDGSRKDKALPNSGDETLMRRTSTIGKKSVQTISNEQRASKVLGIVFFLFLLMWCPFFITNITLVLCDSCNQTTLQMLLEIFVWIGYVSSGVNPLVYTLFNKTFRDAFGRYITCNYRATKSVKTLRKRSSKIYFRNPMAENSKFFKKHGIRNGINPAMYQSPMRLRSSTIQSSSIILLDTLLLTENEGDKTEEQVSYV
Serotonin 2 receptors; 5-HT2a & 5-HT2c (Homo sapiens), sequence (P28223 whole entry, looked up, one chain of several): as the sequence (P28223 whole entry) above

SMILES	EC50 [1]	EC50 [2]	Emax [3]	Emax [4]	EC50 [5]	Emax [6]	inhibition at 10 µM (hERG (KCNH2))	Ratio (Caco-2)	Papp A→B [7]	AUC (Rattus norvegicus [8])	MRT [9]	clearance [10]	Vd [11]	Activity (Rattus norvegicus [12])	MRT [13]	Activity (Rattus norvegicus [14])	Ratio [15]	Ratio EC50 [16]	Ratio EC50 (Homo sapiens)
Fc1ccccc1OC1CN(c2c3c(nc4ccnn24)CCNCC3)C1	5 nM	94 nM	85%	69%	648 nM	15%	–	–	–	–	–	–	–	–	–	–	–	–	–
COc1ccccc1OC1CN(c2c3c(nc4ccnn24)CCNCC3)C1	84 nM	379 nM	84%	89%	2680 nM	48%	88%	–	–	–	–	–	–	–	–	–	–	–	–
CC(=O)N(C)c1ccc(OC2CN(c3c4c(nc5ccnn35)CCNCC4)C2)cc1	188 nM	1180 nM	96%	60%	2050 nM	35%	5%	6.9	0.62 ×10⁻⁶ cm/s	–	–	–	–	–	–	–	–	–	–
c1cc2nc3c(c(N4CCCC4)n2n1)CCNCC3	764 nM	2240 nM	110%	36%	2310 nM	15%	–	–	–	–	–	–	–	–	–	–	–	–	–
c1cc(OC2CN(c3c4c(nc5ccnn35)CCNCC4)C2)ccn1	574 nM	1160 nM	102%	79%	1230 nM	27%	–	–	–	–	–	–	–	–	–	–	–	–	–
Fc1cccc(OC2CN(c3c4c(nc5ccnn35)CCNCC4)C2)c1	25 nM	13 nM	78%	23%	32 nM	5%	93%	1.6	7.9 ×10⁻⁶ cm/s	–	–	–	–	–	–	–	–	–	–
c1ccc(OC2CN(c3c4c(nc5ccnn35)CCNCC4)C2)cc1	18 nM	218 nM	95%	58%	7770 nM	22%	81%	2.3	13.3 ×10⁻⁶ cm/s	–	–	–	–	–	–	–	–	–	–
O=C1Cc2cc(OC3CN(c4c5c(nc6ccnn46)CCNCC5)C3)ccc2N1	8.4 nM	73 nM	99%	82%	762 nM	86%	11%	–	–	–	–	–	–	–	–	–	–	–	–
COc1cccc(OC2CN(c3c4c(nc5ccnn35)CCNCC4)C2)c1	65 nM	215 nM	88%	43%	40 nM	9%	97%	2.1	10.1 ×10⁻⁶ cm/s	–	–	–	–	–	–	–	–	–	–
c1ccc(OC2CN(c3c4c(nc5ccnn35)CCNCC4)C2)nc1	37 nM	706 nM	93%	71%	5170 nM	29%	78%	2.2	10.3 ×10⁻⁶ cm/s	–	–	–	–	–	–	–	–	–	–
COc1ccc(OC2CN(c3c4c(nc5ccnn35)CCNCC4)C2)cc1	95 nM	503 nM	76%	31%	2630 nM	21%	93%	1.3	10.4 ×10⁻⁶ cm/s	0.72 µM·h	> 24 h	14 mL/min/kg	11 L/kg	3.3%	13 h	3.2%	0.15	–	–
c1cc2nc3c(c(N4CCCCC4)n2n1)CCNCC3	4560 nM	2850 nM	139%	28%	585 nM	10%	–	–	–	–	–	–	–	–	–	–	–	–	–
CCN(C)c1c2c(nc3ccnn13)CCNCC2	362 nM	842 nM	105%	69%	–	–	–	–	–	–	–	–	–	–	–	–	–	–	–
Fc1ccc(OC2CN(c3c4c(nc5ccnn35)CCNCC4)C2)cc1	23 nM	163 nM	95%	43%	3 nM	8%	95%	–	–	–	–	–	–	–	–	–	–	–	–
c1cncc(OC2CN(c3c4c(nc5ccnn35)CCNCC4)C2)c1	211 nM	1480 nM	99%	73%	63 nM	94%	–	–	–	–	–	–	–	–	–	–	–	–	–
CCNc1c2c(nc3ccnn13)CCNCC2	63 nM	602 nM	104%	97%	138 nM	62%	–	–	–	–	–	–	–	–	–	–	–	–	–
c1cc2nc3c(c(N4CCC4)n2n1)CCNCC3	5.4 nM	94 nM	103%	97%	2350 nM	51%	–	–	–	–	–	–	–	–	–	–	–	> 100	< 20
